Where “and” joins values, the source holds several entries; their conditions need not be identical. Equal entries are not always repeated.
Legend:
U-118 MG cells = experiment: MTT cytotoxicity assay, U-118 MG; format: cell-based, human; conditions: 48 h; for viability at 0.1 µM / viability at 0.5 µM / viability at 0.75 µM / viability at 1 µM / viability at 2.5 µM / viability at 5 µM / viability at 7.5 µM / viability at 10 µM / viability at 15 µM / viability at 20 µM / IC50: Homo sapiens, U-118-MG; for viability at 0.1 µM / viability at 0.5 µM / viability at 0.75 µM / viability at 1 µM / viability at 2.5 µM / viability at 5 µM / viability at 7.5 µM / viability at 10 µM / viability at 15 µM / viability at 20 µM / Cell viability %: U-118 MG, repeats; for viability at 0.1 µM / viability at 0.5 µM / viability at 0.75 µM / viability at 1 µM / viability at 2.5 µM / viability at 5 µM / viability at 7.5 µM / viability at 10 µM / viability at 15 µM / viability at 20 µM: read-out: Cell viability %; for IC50: MTT
Procedure: (§1) The effects of the tested compounds 1–6 on HF-P4, U-118 MG, H1299, BT-20, and Caov-3 cell lines were evaluated by the MTT assay during 48 h treatment (Table 2 and Tables S2–S31). In all tested compounds, we recognized a difference in cytotoxicity between healthy cells (HF-P4) and cancer cell lines (BT-20, Caov-3, and H-1299). […] In the case of ovarian cancer, the authors discovered oncogenic and poor prognosis roles of TET1 in epithelial ovarian carcinoma (EOC). TET1 is believed to demethylate the epigenome and activate numerous oncogenic pathways in EOC. The aforementioned study presents a new mechanism where TET1 contributes to tumor development through collaboration with CK2α [21]. The overexpression of the TET1 protein was also found in triple negative breast cancer and was associated with an activation of PI3K/mTOR pathway and decreased overall survival.
A human glioblastoma cell line (U118-MG) and a human non-small-cell lung carcinoma cell line (H1299) were used for the cytotoxicity assay (MTT). Both cell lines were generously supplied by Dr. M. Masařik, PhD, Department of Pathological physiology, Masaryk University, Czech Republic. U118-MG cells were cultivated under standard conditions in Dulbecco’s modified Eagle’s medium (ATCC, Manassas, VA, USA) supplemented with 10% FBS and streptomycin (100 μg/mL) at 37 °C at a 5% CO2 atmosphere. H1299 cells were cultivated under standard conditions in RPMI 1640 (BioTech, Prague, Czech Republic) medium supplemented with 10% FBS and streptomycin (100 μg/mL) at 37 °C at a 5% CO2 atmosphere.
(§2) For the cytotoxicity assay, we used the following cell lines: human glioblastoma cell line U118-MG, human mammary gland/breast cell line BT-20, human ovary adenocarcinoma cell line Caov-3, and non-small-cell lung carcinoma H-1299. As previously mentioned, these cell lines contain a high level of the TET1 protein, which corresponds to a lower overall survival. In addition to these cell cultures, we used the human dermal fibroblast cell line HF-P4 as a healthy control. Determination of cytotoxicity was performed using the MTT [3-(4,5-dimethylthiazol-2-yl)-2,5-diphenyltetrazolium bromide] colorimetric assay. Viable cells from each cell line were cultured in 96-well plates (VWR, Stříbrná Skalice, Czech Republic) at a density of 1.0 × 10^5 cells per well and allowed to grow for 24 h in 200 μL of recommended medium. After a 1-day incubation, the medium was replaced with solutions of compounds 1–6 at concentration ranges of 0.1–20 μM. Each concentration was measured four times within one test, and the entire test was repeated three times. Tested compounds 1–6 were dissolved in DMSO and then diluted with corresponding medium to a final volume of 200 μL (maximum 1% DMSO). After 48 h exposure, cells were treated with 175 μL of MTT solution (P-LAB, Prague, Czech Republic) for 2 h. In the next step, MTT solution was removed, and 125 μL of DMSO (Penta, Prague, Czech Republic) was added to solubilize dark crystals of formazan formed in intact cells, and absorbance was measured at 570 nm by the enzyme-linked immunoabsorbent assay reader Infinite® 200 PRO (Tecan, Männedorf, Switzerland). The final DMSO concentration was smaller than 1% (v/v). The absorbance of untreated cells was considered 100%, and IC50 values were calculated by the GraphPad Prism 8 software. As a parameter for cytotoxicity, we used a concentration that inhibits 50% of cell growth (IC50).

BT-20 cells = experiment: MTT cytotoxicity assay, BT-20; format: cell-based, human; conditions: for Cell viability % / IC50: 48 h; for IC50: BT-20, MTT
Procedure: as §1
The human mammary gland/breast cell line (BT-20), purchased from ATCC (BT-20 (ATCC® HTB-19™), Manassas, VA, USA), was used for the cytotoxicity assay (MTT), and BT-20 cells were cultivated under standard conditions in Eagle’s minimum essential medium (ATCC, Manassas, VA, USA) supplemented with 10% FBS and streptomycin (100 μg/mL) at 37 °C at a 5% CO2 atmosphere.
as §2

[1] = BT-20, 750 nM, repeats, 0.75 µM
[2] = Homo sapiens, BT-20, 48 h, BT-20, 500 nM, repeats, read-out: Cell viability %
[3] = Homo sapiens, BT-20, 48 h, BT-20, 1 uM, repeats, read-out: Cell viability %
[4] = Homo sapiens, BT-20, 48 h, BT-20, 5 uM, repeats, read-out: Cell viability %
[5] = Homo sapiens, BT-20, 48 h, BT-20, 7.5 uM, repeats, read-out: Cell viability %
[6] = Homo sapiens, BT-20, 48 h, BT-20, 10 uM, repeats, read-out: Cell viability %
[7] = Homo sapiens, BT-20, 48 h, BT-20, 15 uM, repeats, read-out: Cell viability %
[8] = Homo sapiens, BT-20, 48 h, BT-20, 20 uM, repeats, read-out: Cell viability %

## Cc1ccc(-n2c(-c3ccc(C(=O)N/N=C/c4ccccc4O)cc3)cc3c2cc(-c2ccc(C(=O)N/N=C/c4ccccc4O)cc2)n3-c2ccc(C)cc2)cc1 [Compound 6]
U-118 MG cells; 100 nM
  viability at 0.1 µM: 98.1%
U-118 MG cells; 500 nM
  viability at 0.5 µM: 73.5%
U-118 MG cells; 750 nM
  viability at 0.75 µM: 67.2%
U-118 MG cells; 1 uM
  viability at 1 µM: 68.4%
  Cell viability %: 80.41% and 81.53%
U-118 MG cells; 2.5 uM
  viability at 2.5 µM: 63%
  Cell viability %: 69.75% and 76.68%
U-118 MG cells; 5 uM
  viability at 5 µM: 59%
  Cell viability %: 63.22% and 58.23%
U-118 MG cells; 7.5 uM
  viability at 7.5 µM: 45.9%
  Cell viability %: 45.4% and 56.877%
U-118 MG cells; 10 uM
  viability at 10 µM: 49.6%
  Cell viability %: 51.17% and 52.19%
U-118 MG cells; 15 uM
  viability at 15 µM: 28%
  Cell viability %: 29.06% and 32.78%
U-118 MG cells; 20 uM
  viability at 20 µM: 22.5%
  Cell viability %: 18.64% and 22.51%
U-118 MG cells
  IC50: 8.12 µM
U-118 MG cells; 100 nM, 0.1 µM
  Cell viability %: 91.37% and 92.92%
U-118 MG cells; 500 nM, 0.5 µM
  Cell viability %: 83.7778% and 86.55%
U-118 MG cells; 750 nM, 0.75 µM
  Cell viability %: 73.07% and 81.93%
BT-20 cells; BT-20, 100 nM, repeats, 0.1 µM
  Cell viability %: 95.0647% and 99.24%
BT-20 cells; BT-20, 500 nM, repeats, 0.5 µM
  Cell viability %: 79.35% and 86.49%
BT-20 cells; [1]
  Cell viability %: 84.44% and 98.05%
BT-20 cells; BT-20, 1 uM, repeats, 1 µM
  Cell viability %: 79.3% and 90.76%
BT-20 cells; BT-20, 2.5 uM, repeats, 2.5 µM
  Cell viability %: 84.17% and 92.79%
BT-20 cells; BT-20, 5 uM, repeats, 5 µM
  Cell viability %: 70.3% and 79.42%
BT-20 cells; BT-20, 7.5 uM, repeats, 7.5 µM
  Cell viability %: 49.86% and 58.52%
BT-20 cells; BT-20, 10 uM, repeats, 10 µM
  Cell viability %: 29.6118% and 40.92%
BT-20 cells; BT-20, 15 uM, repeats, 15 µM
  Cell viability %: 26.72% and 42.11%
BT-20 cells; BT-20, 20 uM, repeats, 20 µM
  Cell viability %: 24.04% and 23.03%
BT-20 cells; Homo sapiens, BT-20, 48 h, BT-20, 100 nM, repeats, read-out: Cell viability %
  viability at 0.1 µM: 104%
BT-20 cells; [2]
  viability at 0.5 µM: 79.9%
BT-20 cells; Homo sapiens, BT-20, 48 h, BT-20, 750 nM, repeats, read-out: Cell viability %
  viability at 0.75 µM: 85.1%
BT-20 cells; [3]
  viability at 1 µM: 91.2%
BT-20 cells; Homo sapiens, BT-20, 48 h, BT-20, 2.5 uM, repeats, read-out: Cell viability %
  viability at 2.5 µM: 89.2%
BT-20 cells; [4]
  viability at 5 µM: 85.8%
BT-20 cells; [5]
  viability at 7.5 µM: 50.5%
BT-20 cells; [6]
  viability at 10 µM: 36.2%
BT-20 cells; [7]
  viability at 15 µM: 37.8%
BT-20 cells; [8]
  viability at 20 µM: 18.8%
BT-20 cells; Homo sapiens
  IC50: 9.84 µM

## Cc1ccc(-n2c(-c3ccc(C(=O)N/N=C/c4ccc(O)cc4O)cc3)cc3c2cc(-c2ccc(C(=O)N/N=C/c4ccc(O)cc4O)cc2)n3-c2ccc(C)cc2)cc1 [Compound 4]
U-118 MG cells; 100 nM
  viability at 0.1 µM: 89.7%
U-118 MG cells; 500 nM
  viability at 0.5 µM: 81.5%
U-118 MG cells; 750 nM
  viability at 0.75 µM: 88.6%
U-118 MG cells; 1 uM
  viability at 1 µM: 88.8%
  Cell viability %: 94.85% and 87.1%
U-118 MG cells; 2.5 uM
  viability at 2.5 µM: 78.8%
  Cell viability %: 87.61% and 83.16%
U-118 MG cells; 5 uM
  viability at 5 µM: 73.7%
  Cell viability %: 72.71% and 76.46%
U-118 MG cells; 7.5 uM
  viability at 7.5 µM: 24.8%
  Cell viability %: 24.19% and 24.17%
U-118 MG cells; 10 uM
  viability at 10 µM: 30%
  Cell viability %: 29.03% and 31.26%
U-118 MG cells; 15 uM
  viability at 15 µM: 21.2%
  Cell viability %: 21.17% and 19.82%
U-118 MG cells; 20 uM
  viability at 20 µM: 15.2%
  Cell viability %: 15.6756% and 12.31%
U-118 MG cells
  IC50: 6.81 µM
U-118 MG cells; 100 nM, 0.1 µM
  Cell viability %: 88.01% and 106.1964%
U-118 MG cells; 500 nM, 0.5 µM
  Cell viability %: 94.35% and 91.8%
U-118 MG cells; 750 nM, 0.75 µM
  Cell viability %: 93.98% and 97.45%
BT-20 cells; BT-20, 100 nM, repeats, 0.1 µM
  Cell viability %: 89.05% and 76.97% and 98.11%
BT-20 cells; BT-20, 500 nM, repeats, 0.5 µM
  Cell viability %: 90.8088% and 82.57%
BT-20 cells; [1]
  Cell viability %: 103.1798% and 88.69% and 109.7163%
BT-20 cells; BT-20, 1 uM, repeats, 1 µM
  Cell viability %: 100.5483% and 88.51%
BT-20 cells; BT-20, 2.5 uM, repeats, 2.5 µM
  Cell viability %: 82.74% and 106.2024% and 110.5893%
BT-20 cells; BT-20, 5 uM, repeats, 5 µM
  Cell viability %: 77.52% and 61.62%
BT-20 cells; BT-20, 7.5 uM, repeats, 7.5 µM
  Cell viability %: 44.3% and 44.18%
BT-20 cells; BT-20, 10 uM, repeats, 10 µM
  Cell viability %: 18.92% and 21.27%
BT-20 cells; BT-20, 15 uM, repeats, 15 µM
  Cell viability %: 8.454% and 10.83%
BT-20 cells; BT-20, 20 uM, repeats, 20 µM
  Cell viability %: 9.864% and 12.92%
BT-20 cells; [2]
  viability at 0.5 µM: 77.8%
BT-20 cells; [3]
  viability at 1 µM: 96.3%
BT-20 cells; [4]
  viability at 5 µM: 73.5%
BT-20 cells; [5]
  viability at 7.5 µM: 37.5%
BT-20 cells; [6]
  viability at 10 µM: 20.1%
BT-20 cells; [7]
  viability at 15 µM: 8.06%
BT-20 cells; [8]
  viability at 20 µM: 8.37%
BT-20 cells; Homo sapiens
  IC50: 6.22 µM
